The target in experiment [1] is D(2) dopamine receptor (Rattus norvegicus, UniProt P61169). Briefly: Binding affinity for [3H]raclopride-labeled dopamine receptor D2 in rat striatum. It is filed as tissue-based.
For experiment [2], the system named is Mus musculus. Description: Time of effect in the isolation-induced aggression behavioral assay in the mouse when a dose of 11 micro mol/kg is administered intraperitoneally. It is filed as functional.
Experiment [3] relates to Rattus norvegicus. Briefly: Effect on the synthesis rates of dopamine (DOPA accumulation) in the rat ventral limbic brain region at 10.7 uM/kg. It is filed as functional, Limbic system.
The test system of experiment [4] is Mus musculus. Description: Time of effect in the face-to-face behavioral assay in the mouse when a dose of 0.0 micro mol/kg is administered perorally. It is filed as functional.
In experiment [5] the test system is Mus musculus. Description: Time of effect in the isolation-induced aggression behavioral assay in the mouse when a dose of 0.0 micro mol/kg is administered intraperitoneally. It is filed as functional.
Experiment [6] has as its system Mus musculus. Briefly: Time of effect in the face-to-face behavioral assay in the mouse when a dose of 11 micro mol/kg is administered perorally. It is filed as functional.
For experiment [7], the system named is Rattus norvegicus. Briefly: Inhibition of firing rates of serotonergic neurons in the dorsal raphe nucleus by intravenous injection in rats. It is filed as functional. The note with it: Rattus norvegicus, Dorsal raphe nucleus, iv; read-out: ED50.
For experiment [8], the system named is Mus musculus. Description: Time of effect in the isolation-induced aggression behavioral assay in the mouse when a dose of 3.6 micro mol/kg is administered perorally. It is filed as functional.
Experiment [9] deals with Mus musculus. Description: Time of effect in the face-to-face behavioral assay in the mouse when a dose of 36 micro mol/kg is administered perorally. It is filed as functional.
The test system of experiment [10] is Mus musculus. Briefly: Time of effect in the isolation-induced aggression behavioral assay in the mouse when a dose of 36 micro mol/kg is administered intraperitoneally. It is filed as functional.
The test system of experiment [11] is Mus musculus. Briefly: Time of effect in the isolation-induced aggression behavioral assay in the mouse when a dose of 11 micro mol/kg is administered perorally. It is filed as functional.
Experiment [12] concerns Rattus norvegicus. Description: Inhibition of firing rates of dopaminergic neurons in the substantia nigra pars compacta by intravenous injection in rats. It is filed as functional.
The subject of experiment [13] is Mus musculus. Description: Time of effect in the isolation-induced aggression behavioral assay in the mouse when a dose of 36 micro mol/kg is administered perorally. It is filed as functional.
For experiment [14], the system named is Rattus norvegicus. Description: Effect on the synthesis rates of serotonin (5-HTP accumulation) in the rat ventral limbic brain region 10.7 umol/kg. It is filed as functional, Limbic system.
For experiment [15], the system named is Mus musculus. Description: Antagonism of apomorphine in reserpinized mice when a dose of 0.4 micro mol/kg is administered intraperitoneally. It is filed as functional.
The target in experiment [16] is D(2) dopamine receptor (Homo sapiens, UniProt P14416). Description: Binding affinity against [3H]U-86,170-labeled dopamine receptor D2 in cloned CHO cells. It is filed as cell-based.
Experiment [17] deals with Mus musculus. Briefly: Antagonism of apomorphine for 10-20 minutes in reserpinized mice when a dose of 3.8 micro mol/kg is administered intraperitoneally. It is filed as functional.
Experiment [18] concerns Mus musculus. Briefly: Antagonism of apomorphine for 0-10 minutes in reserpinized mice when a dose of 0.4 micro mol/kg is administered intraperitoneally. It is filed as functional.
The test system of experiment [19] is Mus musculus. Description: Antagonism of apomorphine in reserpinized mice when a dose of 38 micro mol/kg is administered intraperitoneally. It is filed as functional.
Experiment [20] concerns Mus musculus. Description: Antagonism of apomorphine for 10-20 minutes in reserpinized mice when a dose of 38 micro mol/kg is administered intraperitoneally. It is filed as functional.
Experiment [21] concerns Mus musculus. Briefly: Antagonism of apomorphine for 10-20 minutes in reserpinized mice when a dose of 0.4 micro mol/kg is administered intraperitoneally. It is filed as functional.
Experiment [22] deals with Mus musculus. Description: Ability to stimulate dopaminergic systems by effect on locomotor activity in reserpinized mice when a dose of 3.8 micro mol/kg is administered intraperitoneally. It is filed as functional.
For experiment [23], the system named is Mus musculus. Briefly: Ability to stimulate dopaminergic systems by effect on locomotor activity in reserpinized mice when a dose of 0.4 micro mol/kg is administered intraperitoneally. It is filed as functional.
Experiment [24] deals with Mus musculus. Briefly: Antagonism of apomorphine in reserpinized mice when a dose of 3.8 micro mol/kg is administered intraperitoneally. It is filed as functional.
Experiment [25] deals with Mus musculus. Description: Ability to stimulate dopaminergic systems by effect on locomotor activity in reserpinized mice when a dose of 38 micro mol/kg is administered intraperitoneally. It is filed as functional.
The subject of experiment [26] is Mus musculus. Description: Antagonism of apomorphine for 0-10 minutes in reserpinized mice when a dose of 3.8 micro mol/kg is administered intraperitoneally. It is filed as functional.
The test system of experiment [27] is Mus musculus. Description: Antagonism of apomorphine for 0-10 minutes in reserpinized mice when a dose of 38 micro mol/kg is administered intraperitoneally. It is filed as functional.

The values below come from ChEMBL document CHEMBL1126639, “Centrally acting serotonergic and dopaminergic agents. 2. Synthesis and structure-activity relationships of 2,3,3a,4,9,9a-hexahydro-1H-benz[f]indole derivatives” (J Med Chem, 1993).

Where only a bound is given, the exact number is not on record here.

D(2) dopamine receptor (Rattus norvegicus, UniProt P61169), sequence (P61169 whole entry): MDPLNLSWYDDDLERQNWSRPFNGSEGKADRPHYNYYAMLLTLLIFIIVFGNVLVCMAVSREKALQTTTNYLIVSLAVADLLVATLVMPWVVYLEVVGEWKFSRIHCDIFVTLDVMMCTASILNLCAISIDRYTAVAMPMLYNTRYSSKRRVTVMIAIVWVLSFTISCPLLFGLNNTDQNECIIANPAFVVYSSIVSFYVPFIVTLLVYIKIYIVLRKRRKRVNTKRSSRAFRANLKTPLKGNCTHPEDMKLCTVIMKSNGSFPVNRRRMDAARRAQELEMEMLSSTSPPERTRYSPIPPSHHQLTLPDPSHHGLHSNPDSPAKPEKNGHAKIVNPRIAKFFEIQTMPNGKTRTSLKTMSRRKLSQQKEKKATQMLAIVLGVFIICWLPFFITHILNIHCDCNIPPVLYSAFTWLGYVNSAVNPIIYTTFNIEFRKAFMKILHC
D(2) dopamine receptor (Homo sapiens, UniProt P14416), sequence (P14416 whole entry): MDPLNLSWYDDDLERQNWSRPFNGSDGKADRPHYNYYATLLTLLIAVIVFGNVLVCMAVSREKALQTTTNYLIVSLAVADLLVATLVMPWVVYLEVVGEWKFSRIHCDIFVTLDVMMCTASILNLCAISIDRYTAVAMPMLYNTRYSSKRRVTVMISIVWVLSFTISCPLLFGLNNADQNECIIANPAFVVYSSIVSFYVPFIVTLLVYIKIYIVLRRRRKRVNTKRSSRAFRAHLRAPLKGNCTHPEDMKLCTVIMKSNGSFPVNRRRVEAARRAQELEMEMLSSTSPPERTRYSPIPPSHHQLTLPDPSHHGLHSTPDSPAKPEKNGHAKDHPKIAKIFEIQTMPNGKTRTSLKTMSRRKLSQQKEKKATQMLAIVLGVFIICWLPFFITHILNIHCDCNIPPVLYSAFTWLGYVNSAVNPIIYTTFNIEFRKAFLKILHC

The Ki is a dissociation constant, usually derived from enzyme kinetics or from competition with a known ligand. A higher Ki goes with a looser hold on the target. In general, ED50 refers to the dose at which the effect has come halfway, by size or by number of responders. `C=CCN1CC[C@H]2Cc3c(cccc3OC)C[C@@H]21` registered an inhibition constant (Ki) on D(2) dopamine receptor [1] of over 1000 nM. Moreover, the Time was 46 s in the experiment with Mus musculus [2]; 0.3 s in the experiment on Mus musculus [4]; 5 s with Mus musculus [5]; 0.7 s with Mus musculus [6]; 36 s with Mus musculus [8]; 0.9 s with Mus musculus [9]. For the same compound, the Time with Mus musculus [10] was found to be 83 s; in the experiment with Mus musculus [11], 63 s; with Mus musculus [13], 219 s. Further, the Control is given as 29% in the experiment with Rattus norvegicus [3] and 4% with Rattus norvegicus [14]. For the same compound, the figures for the ED50 in the experiment with Rattus norvegicus [7] and in the experiment with Rattus norvegicus [12] were 3.97 µmol/kg and 4.75 µmol/kg, respectively.
As for `C=CCN1CC[C@@H]2Cc3c(O)cccc3C[C@H]21` (racemic), the inhibition constant (Ki) at D(2) dopamine receptor [1] worked out at 47 nM; at D(2) dopamine receptor [16], 235 nM. The Locomotor activity came out at 108 in the experiment with Mus musculus [15]; 54 with Mus musculus [17]; 61 with Mus musculus [18]; 123 in the experiment with Mus musculus [19]; 46 in the experiment with Mus musculus [20]; 77 with Mus musculus [21]. Also, the Locomotor activity with Mus musculus [22] is 1409; with Mus musculus [23] it was 450; in the experiment on Mus musculus [24], 133; with Mus musculus [25], 1783; in the experiment with Mus musculus [26], 40; in the experiment with Mus musculus [27] it was 55. Further, the ED50 with Rattus norvegicus [7] turned out to be 0.35 µmol/kg; in the experiment on Rattus norvegicus [12], 0.007 µmol/kg.
